Measurements taken from US20150072023A1, “[…] NITRIC OXIDE FOR TREATING RESPIRATORY DISEASES” (Advanced Inhalation Therapies (AIT) Ltd., priority 2013, published 2015).
“Also recorded” adds a separate entry of the source.

What was measured:
[1] = system: five planktonic species of methicillin resistant S. aureus (MRSA); details: 1,600 ppm hours of gNO; cited from earlier work
[2] = system: human respiratory syncytial virus (rgRSV30); assay: Plaque assay of gNO-exposed respiratory syncytial virus; type: cell-based; details: 160 ppm exogenous gaseous NO
[3] = system: P. aeruginosa; details: agar plates exposed to gNO; cited from earlier work
[4] = topical 200 ppm gNO, within the first three days of treatment; cited from earlier work
[5] = Randomized double blind study of intermittent gNO inhalation in infants with bronchiolitis, interim results; type: in vivo, human; details: infants 2-12 months
From the text: The following is an exemplary protocol for clinical studies based on the methods according to embodiments of the present invention, aimed at treatment of bronchiolitis in humans. Specifically, the topic of the study is a randomized double blind evaluation of efficacy, safety and tolerability of nitric oxide given intermittently via inhalation to subjects with bronchiolitis.
An improvised inhalation device is based on standard hospital equipment and hospital oxygen source. For example, oxygen is supplied from the main hospital oxygen system via an oxygen blender, such as for example, Bird model 03800, followed by a hospital's oxygen mass flow meter. The oxygen-rich air is monitored so as to reach a maximal final concentration of about 40% O2. The blended air/oxygen is supplied to the subject via a Y-shape connector attached next to a standard hospital face mask such as for example, a Hospiltak mask by Unomedical Inc.
gNO flow, tapped from a tank containing 800 ppm nitric oxide in 99.999% pure N2, supplied by an authorized gas provider in, for example, 50 or 30 litter containers with 120 bar or 150 bar respectively, is adjusted by passing through a standard hospital's regulator, such as for example CareFusion™ model 400, and the hospital mass flow meter, such as a CareFusion™ model 77063.
The gNO flow is adjusted before each inhalation cycle based on the gNO concentration detected in the subject's mask. After a fresh system calibration, the regulator and the mass flow meter are adjusted to deliver 160 ppm of gNO at 5 to 15 liters per minute. gNO is supplied to the subject via the second arm of the Y shaped connector (specified above) attached next to the face mask. Mask and tubing ports are used to monitor continuously gNO and NO2 concentrations and FiO2 values delivered to the subject.
Halitus (exhalation) is monitored by, for example, end-tidal CO2 (EtCO2). EtCO2 is monitored using standard equipment such as Microcap® Portable Capnography Monitor, Cat.# CSO4179 by Oridion, Israel, with nasal prongs such as (Infant Neonate Cat.#008179 by Oridion, Israel.
Methemoglobin (SpMet) and oxygen saturation or dissolved oxygen (SpO2) levels are monitored continuously using a dedicated monitor such as for example RAD 57 by Masimo.
The population for the study is 44 children of 2-12 months old diagnosed with bronchiolitis, whom required hospitalization (expected dropout rate is 10%). The population is split into two groups: Group 1, referred to as the treatment group, receives intermittent (5×30 minutes, a day) inhalation of 160 ppm gNO in addition to the standard treatment of O2 administration, for up to 5 days. Between gNO inhalations, the subjects continue to receive the standard inhalation treatment (O2). Group 2, referred to as the control group, receives continuous inhalation of the standard treatment (O2).
Group 1 (treatment group) receives the standard treatment (O2) combined with the inhalation via face mask of […] administered for 30 minutes every four hours, keeping a minimum of 3 hours between the end of one gNO inhalation cycle and the beginning of the next cycle, five times a day for five consecutive days or until a decision to discontinue therapy. The maximal cumulative exposure to nitric oxide is estimate at 2,000 ppm hours.

[6] = Prospective phase I open label safety study of intermittent 160 ppm gNO inhalation in healthy adults; type: in vivo, human
From the text: 10 healthy adult volunteer subjects (5 males, 5 females), aged 20 to 62 years, were enrolled in the study after screening their medical history, a physical examination, pulmonary function tests and blood values. Exclusion criteria included individuals less than 19 years of age, pregnant females and unwilling to practice birth control during the study, diagnosed with pulmonary disease, epistaxis, hemoptysis, methemoglobinemia, organ transplant recipient or receiving antibiotic therapy.
After obtaining informed consent, treatment was initiated within 5 days of enrollment. Subjects were housed in a hospital ward and received 160 ppm gNO for 30 minutes every four hours (Q4h), five times a day, for five consecutive days by inhalation. Subjects returned for follow-up evaluations 3, 7 and 21 days after the final gNO administration. Subject safety was determined by monitoring vital signs, methemoglobin levels, lung function, blood chemistry, hematology, prothrombin time, inflammatory cytokine/chemokines levels and endothelial activation. These parameters were compared to baseline and at various time-points during and after gNO administration.
Subjects were administered gNO through a modified disposable mouthpiece to maximize mixing. Inspiration was spontaneously initiated by the subject from a conventional intermittent positive pressure breathing respirator (Mark-7, Carefusion, USA) in fixed flow mode delivering 48 liters per minute (LPM). Flows of gas were verified with a calibrated mass flow meter (TSI, USA). Gaseous nitric oxide (gNO, obtained at INOmax, Ikaria, USA) at a concentration of 800 ppm delivered at a flow of 12 LPM was titrated into a distal delivery port on the mouth piece connected to the respirator during inspiratory phase only (pressure switch). The Mark 7 respirator was supplied by an air/oxygen blender (Bird Sentry, Carefusion, USA) set to deliver 26% oxygen.
The levels of gNO, NO2, O2 and methemoglobin were monitored during the administration of gNO. The target gas mixture was 160 ppm gNO with a nitrogen dioxide (NO2) level of less than 5 ppm and an oxygen (O2) level ranging from 21% to 25%. Inspiratory NO, NO2 and O2 levels were continuously monitored by sampling from the mouthpiece sample port located about 6 millimeters from the mouth of the subject with an AeroNOx (Pulmonox, AB, Canada) NO, NO2 and O2 electrochemical analyzer. Delivery safety was determined by the number of occasions that NO2 exceeded 5 ppm, gNO exceeding 10% variation and O2 dropping below 20% during gNO administration. A commercially available noninvasive pulse oximeter (Rad 57, Masimo Corporation, USA) was used to measure saturation levels at the periphery of methemoglobin (SpMet).
These parameters were measured continuously during every gNO administration course and for 3.5 hours after the first treatment of the day. Daily serum samples were collected and frozen at −80° C. and the serum […] level was measured using the Griess reagent.
Subjects underwent full pulmonary function tests (PFT), including lung diffusing capacity (DLCO) by a trained technician utilizing a calibrated pulmonary function system (Jaeger MasterScreen, VIASYS Healthcare, USA) on screening and days 2, 8, 12 and 26. Spirometry test (Microloop by Micro Medical, England) was performed on days 1, 3 and 4. Effect of gNO on lung function and DLCO was determined by changes from baseline, treatment days and follow up days.
General medical examinations were performed by a pulmonary physician on screening and on days 8, 12 and 26 to obtain oxygenation and vital sign measurements. Abbreviated physical examination by a registered nurse was carried out each day prior to initiation of treatments on days 1-5. Oxygenation was measured with a pulse oximeter (Rad 57, Masimo Corporation, USA) which was used according to manufacturer's guidelines to measure functional oxygen saturation of arterial hemoglobin (SpO2) and heart rate. […]

[7] = cited from earlier work
[8] = 300 ppm gNO, first 1-2 days, group of 10 rats; cited from earlier work
[9] = system: S. aureus; details: agar plates exposed to gNO; cited from earlier work
[10] = system: influenza A/victoria/H3N2; details: 160 ppm exogenous gNO, MDCK cell model; cited from earlier work
[11] = in vivo; cited from earlier work
[12] = system: highly pathogenic Avian Influenza H7N3; details: cited from earlier work
[13] = 250 gNO administration procedures, 10 subjects
[14] = during and after gNO administration

SMILES: [N]=O [gNO, nitric oxide]
- bacterial population [1]: reduction in the population
- infectivity [2]: reduced their infectivity
- effect on bacterial growth [3]: bacteristatic effect
- biofilm [4]: no longer visibly present
- NO2 levels during treatment [5]: below 2 ppm
- pre-methemoglobin levels in each treatment [5]: less than 5%
- premature withdrawal due to NO related adverse effect [5]: no infant withdrew prematurely
- tolerability [5]: All patients tolerated the NO treatment
- time for SpMet to return to the baseline levels ([5]; 160 ppm gNO 30 min): 210 min
- average increase of SpMet in a single treatment course ([6]; 160 ppm gNO for 30 minutes, ten individuals): 0.9%
- adverse events / tolerability [6, 13]: do not cause lung injury or other signs of adverse effects in humans; also recorded: Neither significant adverse events nor adverse events attributable to gNO inhalation occurred; also recorded: safe and well tolerated; also recorded: no significant adverse events were observed
- number of minor adverse events reported [6, 13]: Three
- plasma cytokine levels of TNF, IL-6, IL-8, IL-10, IL-1b and IL-12p70 ([6]; cytometric bead array, vs baseline): unaffected; also recorded: remained constant
- pulmonary function tests [6, 14]: impacts lung function only minimally; also recorded: remained unchanged compared to baseline values
- vital signs [6, 14]: remained well within acceptable clinical margins
- accumulative or residual effect on SpMet ([6]; five daily treatments for five consecutive days, follow-up 3, 7 and 21 days): no accumulative or lingering effect; also recorded: did not show any residual increase in SpMet
- vascular endothelial activation factors Ang-1, Ang-2, Ang-2/Ang-1 ratio ([6]; plasma, vs baseline): not affected; also recorded: unaffected
- inhalation threshold limit value (TLV) as time-weighted average (TWA) ([7]; OSHA / Environmental Protection Agency): 25 ppm
- TLV-TWA in ppm hours units ([7]; calculated): 200 ppm hours
- number of animals that died [8]: Six
- effect on bacterial growth [9]: bacteristatic effect
- viral replication and infectivity [10]: reduced their infectivity; also recorded: capable of reducing the infectivity
- radius of action from its site of origin [11]: approximately 200 microns
- viral replication and infectivity [12]: reduced their infectivity; also recorded: capable of reducing the infectivity
